In PMC10893271, “Polymeric Nanoparticles as Oral and Intranasal Peptide Vaccine Delivery Systems: The Role of Shape and Conjugation” (Vaccines, 2024):
No end group written: not given here.

Target: T1, bovine trypsin (Bos taurus, UniProt P00760)
T1 sequence (P00760 24-246): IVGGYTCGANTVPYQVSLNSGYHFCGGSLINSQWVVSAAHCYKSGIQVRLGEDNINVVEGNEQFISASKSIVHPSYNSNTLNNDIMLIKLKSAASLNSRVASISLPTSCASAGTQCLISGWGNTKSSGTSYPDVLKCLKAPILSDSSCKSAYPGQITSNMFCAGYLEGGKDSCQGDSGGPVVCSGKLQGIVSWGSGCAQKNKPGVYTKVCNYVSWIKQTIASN
Assay: In vitro stability against proteolysis
Conditions: bovine trypsin (1000 U/mL stock, 100 µL) with 1 mM CaCl2 in PBS + 400 µL antigen solution (PJ8 1.25 mg/mL in PBS); 37 °C; HPLC with calibration curve

AKFVAAWTLKAAAQAEDKVKQSREAKKQVEKALKQLEDKVQ-NH2 [PJ8]
time to full degradation by trypsin: ≤ 30 min
